Results reported in BindingDB's records for doi:10.1002/cbic.200900537 (University of Cambridge, 2009).

Target: T1, Pantothenate synthetase (Mycobacterium tuberculosis (strain ATCC 25618 / H37Rv), UniProt P9WIL5)
T1 sequence (P9WIL5 whole entry): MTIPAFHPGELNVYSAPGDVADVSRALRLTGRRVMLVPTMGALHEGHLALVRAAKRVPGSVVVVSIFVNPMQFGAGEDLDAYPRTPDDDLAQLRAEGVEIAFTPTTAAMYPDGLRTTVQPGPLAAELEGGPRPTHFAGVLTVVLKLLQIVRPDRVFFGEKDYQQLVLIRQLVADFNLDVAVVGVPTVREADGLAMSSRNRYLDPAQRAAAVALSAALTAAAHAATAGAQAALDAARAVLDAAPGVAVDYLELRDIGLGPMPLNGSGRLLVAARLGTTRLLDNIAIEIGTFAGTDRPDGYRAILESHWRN
Test: Binding Assay
Settings: pH 7.6; 25 °C
Description: The dissociation constants and enthalpies was determined by isothermal titration calorimety.

**Q.** How did the Kd turn out when `Nc1ncnc2c1ncn2[C@@H]1O[C@H](CSSCC(O)CO)[C@@H](O)[C@H]1O` (stereo partly specified) [5'-Deoxy-5'-thiodenosine scaffold, 14c] was run?
**A.** 570 µM
